The test has as its system human microvascular endothelial cells. Briefly: in vitro model of wound healing (cell migration), time for 50% of wound to heal. The format is cell-based. The source says:
The time for wounds to heal by 50% under the various treatment conditions was quantified.

In the case of `NCCS(=O)(=O)O` [L-Taurine], the “Time for 50% wound to heal” value (Table 9, single ingredients, Present Art and Present Art without one ingredient) came to 22.5 h.
`CC(=O)N[C@@H](CS)C(=O)O` [N-acetylcysteine, reference compound]: where the note is “compared to untreated or to the additive effect of the compounds”, the “effect on time and extent of wound healing (in words)” value was “increased the time to 50% healing compared to untreated”.
Regarding `OCCc1ccc(O)c(O)c1` [Hydroxytyrosol], for the setting “hydroxytyrosol alone versus the combination (Table 1)”, the “less effective in wound healing than the present art” value is given as 30%.

Values taken from patent publication US9018237B2, “Methods for improved wound closure employing olivamine and endothelial cells” (priority 2009, dated 2015).
